# Molecular target: SHP2 (Homo sapiens (Human), UniProt Q06124)
# Test: SHP2 Allosteric Inhibition Assay (DiFMUP prompt fluorescence)
# Assay type: biochemical
# Details: 0.2 nM SHP2 with 0.5 μM Activating Peptide 1 or 2, surrogate substrate DiFMUP, 25° C.; read-out: SHP2 Allosteric Biochem: IC50
# Text: Without wishing to be bound by theory, SHP is allosterically activated through binding of bis-tyrosyl-phosphorylated peptides to its Src Homology 2 (SH2) domains. The latter activation step leads to the release of the auto-inhibitory interface of SHP2, which in turn renders the SHP2 protein tyrosine phosphatase (PTP) active and available for substrate recognition and reaction catalysis. The catalytic activity of SHP2 was monitored using the surrogate substrate DiFMUP in a prompt fluorescence assay format.
# The phosphatase reactions were performed at room temperature in 96-well black polystyrene plate, flat bottom, non-binding surface (Corning, Cat #3650) using a final reaction volume of 100 μL and the following assay buffer conditions: 50 mM HEPES, pH 7.2, 100 mM NaCl, 0.5 mM EDTA, 0.05% P-20, 1 mM DTT.
# The inhibition of SHP2 by compounds of the disclosure (concentrations varying from 0.00005-10 μM) was monitored using an assay in which 0.2 nM of SHP2 was incubated with 0.5 μM of Activating Peptide 1 (sequence: H2N-LN(pY)IDLDLV(dPEG8)LST (pY)ASINFQK-amide) or Activating Peptide 2 (sequence: H2N-LN(pY)AQLWHA(dPEG8) LTI(pY)ATIRRF-amide). After 30-60-minutes incubation at 25° C., the surrogate substrate DiFMUP (Invitrogen, Cat #D6567) was added to the reaction and activity was determined by a kinetic read using a microplate reader (Envision, Perkin-Elmer or Spectramax M5, Molecular Devices). The excitation and emission wavelengths were 340 nm and 450 nm, respectively. Initial rates were determined from a linear fit of the data, and the inhibitor dose response curves were analyzed using normalized ICso regression curve fitting with control based normalization.
# Chain of SHP2 (Q06124 whole entry): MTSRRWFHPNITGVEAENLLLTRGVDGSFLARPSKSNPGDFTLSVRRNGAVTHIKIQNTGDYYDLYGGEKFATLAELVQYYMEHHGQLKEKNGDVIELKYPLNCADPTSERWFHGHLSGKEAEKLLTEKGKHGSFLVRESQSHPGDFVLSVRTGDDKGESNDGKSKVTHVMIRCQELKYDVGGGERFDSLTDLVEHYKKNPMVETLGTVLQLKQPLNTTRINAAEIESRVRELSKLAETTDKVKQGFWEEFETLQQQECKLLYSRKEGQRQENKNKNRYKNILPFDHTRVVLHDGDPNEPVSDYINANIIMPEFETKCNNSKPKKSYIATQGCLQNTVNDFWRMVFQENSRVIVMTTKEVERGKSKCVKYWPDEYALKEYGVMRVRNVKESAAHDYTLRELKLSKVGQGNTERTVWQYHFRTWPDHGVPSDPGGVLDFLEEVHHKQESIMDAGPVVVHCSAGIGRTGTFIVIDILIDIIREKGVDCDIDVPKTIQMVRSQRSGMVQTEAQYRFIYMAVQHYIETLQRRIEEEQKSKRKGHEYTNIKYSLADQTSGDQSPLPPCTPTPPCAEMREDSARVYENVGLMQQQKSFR
row,Structure (SMILES),IC50
1,"N[C@@H]1CCCC12CCN(c1cc(O)c(-c3cccc(Cl)c3Cl)nc1CO)CC2 [Example 1, 5-[(4R)-4-amino-8-azaspiro[4.5]decan-8-yl]-2-(2,3-dichlorophenyl)-6-(hydroxymethyl)pyridin-3-ol]",210 nM
2,"N[C@@H]1CCCC12CCN(c1cc(O)c(Sc3cccc(Cl)c3Cl)nc1CO)CC2 [Example 2, 5-[(1R)-1-amino-8-azaspiro[4.5]decan-8-yl]-2-[(2,3-dichlorophenyl)sulfanyl]-6-(hydroxymethyl)pyridin-3-ol]",37 nM
3,"N[C@@H]1CCCC12CCN(c1cnc(-c3cccc(Cl)c3Cl)c(O)c1)CC2 [Example 3, 5-[(1R)-1-amino-8-azaspiro[4.5]decan-8-yl]-2-(2,3-dichlorophenyl)pyridin-3-ol]",740 nM
4,"Cc1cc(N2CCC3(CCC[C@H]3N)CC2)c(CO)nc1-c1cccc(Cl)c1Cl [Example 4, {3-[(1R)-1-amino-8-azaspiro[4.5]decan-8-yl]-6-(2,3-dichlorophenyl)-5-methylpyridin-2-yl}methanol]",69 nM
5,"Cc1cc(N2CCC3(CCC[C@H]3N)CC2)cnc1-c1cccc(Cl)c1Cl [Example 5, (1R)-8-[6-(2,3-dichlorophenyl)-5-methylpyridin-3-yl]-8-azaspiro[4.5]decan-1-amine]",210 nM
